Measured values from US10988523B2, “Modified lipidated Relaxin B chain peptides and their therapeutic use” (Sanofi, priority 2018, dated 2021).
*1 amine or outer side, *2 acyl side, *3 side chain or, on linkers, in order; H or OH if unused. Where a SMILES comes first, the peptide text is derived from it. Side-chain parts run from the residue outwards. [ ]: non-standard residue; d: D form. The star is where a group is joined. PEG12 = NCCOCCOCCOCCOCCOCCOCCOCCOCCOCCOCCOCCOCCC(=O)O; Lys(Me3) = C[N+](C)(C)CCCC[C@H](N)C(=O)O; γGlu = O=C(O)[C@H](CCC(=O)[*:2])N[*:1]; 1Nal = N[C@@H](Cc1cccc2ccccc12)C(=O)O; Arg(Me) = CNC(=N)NCCC[C@H](N)C(=O)O; Stearoyl = CCCCCCCCCCCCCCCCCC(=O)*; Palmitoyl = CCCCCCCCCCCCCCCC(=O)*; αMeK = C[C@](N)(CCCCN)C(=O)O; Nle = CCCC[C@H](N)C(=O)O; AEEA = NCCOCCOCC(=O)O; Aib = CC(C)(N)C(=O)O

Target: T1, RXFP1 (Homo sapiens, UniProt Q9HBX9)
T1 construct: OVCAR5 cells expressing endogenous RXFP1; endogenous in cells; host or cells: OVCAR5 cells
T1 sequence (Q9HBX9 1-757): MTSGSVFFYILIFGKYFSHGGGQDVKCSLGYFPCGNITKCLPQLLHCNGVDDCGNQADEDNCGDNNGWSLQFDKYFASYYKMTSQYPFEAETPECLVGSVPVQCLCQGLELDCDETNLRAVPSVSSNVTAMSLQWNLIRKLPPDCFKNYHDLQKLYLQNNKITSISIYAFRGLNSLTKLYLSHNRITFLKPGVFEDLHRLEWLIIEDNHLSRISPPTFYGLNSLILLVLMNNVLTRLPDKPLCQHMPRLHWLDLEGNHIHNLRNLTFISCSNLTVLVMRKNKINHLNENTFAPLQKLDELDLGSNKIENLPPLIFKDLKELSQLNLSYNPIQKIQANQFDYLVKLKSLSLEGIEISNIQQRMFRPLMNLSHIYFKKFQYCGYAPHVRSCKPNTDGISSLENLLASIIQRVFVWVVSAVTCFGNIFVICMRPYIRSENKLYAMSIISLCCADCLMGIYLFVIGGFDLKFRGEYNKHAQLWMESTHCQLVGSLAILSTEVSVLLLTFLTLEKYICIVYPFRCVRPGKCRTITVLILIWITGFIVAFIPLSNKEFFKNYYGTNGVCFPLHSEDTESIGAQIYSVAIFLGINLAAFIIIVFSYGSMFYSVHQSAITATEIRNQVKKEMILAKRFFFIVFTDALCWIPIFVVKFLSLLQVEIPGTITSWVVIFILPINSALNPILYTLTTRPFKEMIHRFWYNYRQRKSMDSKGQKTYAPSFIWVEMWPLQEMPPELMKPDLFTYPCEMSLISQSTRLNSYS
Experiment: OVCAR5 cAMP assay (HTRF), RXFP1 agonist activity
Assay type: cell-based
Settings: for EC50: OVCAR5 cells, cAMP HTRF, read-out: EC50 (nM), OVCAR 5 cells (cAMP); for Emax: OVCAR-5, maximal cAMP relative to H2-relaxin maximum (100%), read-out: EMax, OVCAR 5 cells (cAMP)
How it was run: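 OVCAR5 cells (endogenous RXFP1) pretreated 40 min at 37° C with 1 mM IBMX, then exposed to peptides in serum-free medium for 30 min at 37° C. Lysate cAMP read by HTRF; EC50 from variable-slope sigmoidal fit; Emax as % of H2-relaxin maximal cAMP in same run.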

| SMILES | EC50 [nM] | Emax [%] |
| --- | --- | --- |
| CCCCCCCCCCCCCCCC(=O)N[C@@H](CCC(=O)N[C@@H](CCC(=O)N[C@@H](CCC(=O)N[C@@H](CCC(=O)NCCOCCOCC(=O)NCCOCCOCC(=O)NCCOCCOCC(=O)NCCCC[C@H](NC(=O)[C@H](CCCCNC(C)=O)NC(=O)[C@H](CCCCN)NC(=O)[C@H](CCCNC(=N)N)NC(=O)[C@](C)(CCCCN)NC(=O)[C@H](CO)NC(=O)[C@H](Cc1c[nH]c2ccccc12)NC(=O)[C@@H](NC(=O)[C@H](CO)NC(=O)[C@H](CCCC)NC(=O)CNC(=O)[C@H](CCC(=O)O)NC(=O)C(C)(C)NC(=O)C(C)(C)NC(=O)[C@@H](NC(=O)[C@H](CCCCNC(C)=O)NC(=O)[C@H](C)NC(=O)[C@H](CCCNC(=N)N)NC(=O)[C@@H](NC(=O)[C@H](CCCCN)NC(=O)[C@H](CCC(=O)O)NC(=O)[C@H](CCCNC(=N)N)NC(=O)CNC(=O)[C@H](CCC(=O)O)NC(=O)[C@H](CC(C)C)NC(C)=O)C(C)C)[C@@H](C)CC)[C@@H](C)O)C(N)=O)C(=O)O)C(=O)O)C(=O)O)C(=O)O [compound 65] (Ac-LEGREKVRAK(Ac)I[Aib][Aib]EG[Nle]STWS[αMeK]RKK(Ac)K([AEEA-AEEA-AEEA-γGlu-γGlu-γGlu-γGlu-Palmitoyl])-NH2) | 0.12 | 93 |
| CCCCCCCCCCCCCCCC(=O)N[C@@H](CCC(=O)N[C@@H](CCC(=O)N[C@@H](CCC(=O)NCCOCCOCCOCCOCCOCCOCCOCCOCCOCCOCCOCCOCCC(=O)NCCCC[C@H](NC(=O)[C@H](CCCCNC(C)=O)NC(=O)[C@H](CCCCN)NC(=O)[C@H](CCCNC(=N)N)NC(=O)C(C)(C)NC(=O)[C@H](CO)NC(=O)[C@H](Cc1c[nH]c2ccccc12)NC(=O)[C@@H](NC(=O)[C@H](CO)NC(=O)[C@H](CCCC)NC(=O)CNC(=O)[C@H](CCC(=O)O)NC(=O)C(C)(C)NC(=O)C(C)(C)NC(=O)[C@@H](NC(=O)[C@H](CCCCNC(C)=O)NC(=O)[C@H](C)NC(=O)[C@H](CCCNC(=N)N)NC(=O)[C@@H](NC(=O)[C@H](CCCCN)NC(=O)[C@H](CCC(=O)O)NC(=O)[C@H](CCCNC(=N)N)NC(=O)CNC(=O)[C@H](CCC(=O)O)NC(=O)[C@H](CC(C)C)NC(C)=O)C(C)C)[C@@H](C)CC)[C@@H](C)O)C(N)=O)C(=O)O)C(=O)O)C(=O)O [compound 66] (Ac-LEGREKVRAK(Ac)I[Aib][Aib]EG[Nle]STWS[Aib]RKK(Ac)K([PEG12-γGlu-γGlu-γGlu-Palmitoyl])-NH2) | – | 83 |
| CCCCCCCCCCCCCCCC(=O)N[C@@H](CCC(=O)N[C@@H](CCC(=O)N[C@@H](CCC(=O)NCCOCCOCC(=O)NCCCC[C@H](NC(=O)[C@H](CCCCN)NC(=O)[C@H](CCCNC(=N)N)NC(=O)C(C)(C)NC(=O)[C@H](CO)NC(=O)[C@H](Cc1c[nH]c2ccccc12)NC(=O)[C@@H](NC(=O)[C@H](CO)NC(=O)[C@H](CCCC)NC(=O)CNC(=O)[C@H](CCC(=O)O)NC(=O)C(C)(C)NC(=O)C(C)(C)NC(=O)[C@@H](NC(=O)[C@H](CCC(N)=O)NC(=O)[C@H](C)NC(=O)[C@H](CCCNC(=N)N)NC(=O)[C@@H](NC(=O)[C@H](CCCCN)NC(=O)[C@H](CCC(=O)O)NC(=O)[C@H](CCCNC(=N)N)NC(=O)CNC(=O)[C@H](CCC(=O)O)NC(=O)[C@H](CC(C)C)NC(C)=O)C(C)C)[C@@H](C)CC)[C@@H](C)O)C(N)=O)C(=O)O)C(=O)O)C(=O)O [compound 55] (Ac-LEGREKVRAQI[Aib][Aib]EG[Nle]STWS[Aib]RKK([AEEA-γGlu-γGlu-γGlu-Palmitoyl])-NH2) | – | 94 |
| CCCCCCCCCCCCCCCC(=O)N[C@@H](CCC(=O)N[C@@H](CCC(=O)N[C@@H](CCC(=O)N[C@@H](CCC(=O)NCCCC[C@H](NC(=O)CCOCCOCCOCCOCCOCCOCCOCCOCCOCCOCCOCCOCCNC(=O)[C@H](CCCCNC(C)=O)NC(=O)[C@H](CCCCN)NC(=O)[C@H](CCCNC(=N)N)NC(=O)[C@](C)(CCCCN)NC(=O)[C@H](CO)NC(=O)[C@H](Cc1c[nH]c2ccccc12)NC(=O)[C@@H](NC(=O)[C@H](CO)NC(=O)[C@H](CCCC)NC(=O)CNC(=O)[C@H](CCC(=O)O)NC(=O)C(C)(C)NC(=O)C(C)(C)NC(=O)[C@@H](NC(=O)[C@H](CCCCNC(C)=O)NC(=O)[C@H](C)NC(=O)[C@H](CCCNC(=N)N)NC(=O)[C@@H](NC(=O)[C@H](CCCCN)NC(=O)[C@H](CCC(=O)O)NC(=O)[C@H](CCCNC(=N)N)NC(=O)CNC(=O)[C@H](CCC(=O)O)NC(=O)[C@H](CC(C)C)NC(C)=O)C(C)C)[C@@H](C)CC)[C@@H](C)O)C(N)=O)C(=O)O)C(=O)O)C(=O)O)C(=O)O [compound 43] (Ac-LEGREKVRAK(Ac)I[Aib][Aib]EG[Nle]STWS[αMeK]RKK(Ac)[PEG12]K([γGlu-γGlu-γGlu-γGlu-Palmitoyl])-NH2) | 0.14 | 106 |

Further lines, results first:

| EC50 [nM] | Emax [%] | SMILES |
| --- | --- | --- |
| – | 98 | CCCCCCCCCCCCCCCCCC(=O)N[C@@H](CCC(=O)N[C@@H](CCC(=O)N[C@@H](CCC(=O)NCCOCCOCCOCCOCCOCCOCCOCCOCCOCCOCCOCCOCCC(=O)NCCCC[C@H](NC(=O)[C@H](CCCCN)NC(=O)[C@H](CCCCN)NC(=O)[C@H](CCCNC(=N)N)NC(=O)C(C)(C)NC(=O)[C@H](CO)NC(=O)[C@H](Cc1c[nH]c2ccccc12)NC(=O)[C@@H](NC(=O)[C@H](CO)NC(=O)[C@H](CCCC)NC(=O)CNC(=O)[C@H](CCC(=O)O)NC(=O)C(C)(C)NC(=O)C(C)(C)NC(=O)[C@@H](NC(=O)[C@H](CCC(N)=O)NC(=O)[C@H](C)NC(=O)[C@H](CCCNC(=N)N)NC(=O)[C@@H](NC(=O)[C@H](CCCCN)NC(=O)[C@H](CCC(=O)O)NC(=O)[C@H](CCCNC(=N)N)NC(=O)CNC(=O)[C@H](CCC(=O)O)NC(=O)[C@H](CC(C)C)NC(C)=O)C(C)C)[C@@H](C)CC)[C@@H](C)O)C(N)=O)C(=O)O)C(=O)O)C(=O)O [compound 97] (Ac-LEGREKVRAQI[Aib][Aib]EG[Nle]STWS[Aib]RKKK([PEG12-γGlu-γGlu-γGlu-Stearoyl])-NH2) |
| 0.4 | 75 | CCCCCCCCCCCCCCCCCC(=O)N[C@@H](CCC(=O)N[C@@H](CCC(=O)N[C@@H](CCC(=O)NCCOCCOCC(=O)NCCOCCOCC(=O)NCCOCCOCC(=O)NCCCC[C@H](NC(=O)[C@H](CCCCN)NC(=O)[C@H](CCCNC(=N)N)NC(=O)C(C)(C)NC(=O)[C@H](CO)NC(=O)[C@H](Cc1cccc2ccccc12)NC(=O)[C@@H](NC(=O)[C@H](CO)NC(=O)[C@H](CCCC)NC(=O)CNC(=O)[C@H](CCC(=O)O)NC(=O)C(C)(C)NC(=O)C(C)(C)NC(=O)[C@@H](NC(=O)[C@H](CCCCNC(C)=O)NC(=O)[C@H](C)NC(=O)[C@H](CCCNC(=N)N)NC(=O)[C@@H](NC(=O)[C@H](CCCCN)NC(=O)[C@H](CCC(=O)O)NC(=O)[C@H](CCCNC(=N)N)NC(=O)CNC(=O)[C@H](CCC(=O)O)NC(=O)[C@H](CC(C)C)NC(C)=O)C(C)C)[C@@H](C)CC)[C@@H](C)O)C(N)=O)C(=O)O)C(=O)O)C(=O)O [compound 79] (Ac-LEGREKVRAK(Ac)I[Aib][Aib]EG[Nle]ST[1Nal]S[Aib]RKK([AEEA-AEEA-AEEA-γGlu-γGlu-γGlu-Stearoyl])-NH2) |
| 0.16 | 87 | CCCCCCCCCCCCCCCC(=O)N[C@@H](CCC(=O)N[C@@H](CCC(=O)N[C@@H](CCC(=O)N[C@@H](CCC(=O)NCCOCCOCC(=O)NCCOCCOCC(=O)NCCOCCOCC(=O)NCCOCCOCC(=O)NCCCC[C@H](NC(=O)[C@H](CCCCNC(C)=O)NC(=O)[C@H](CCCC[N+](C)(C)C)NC(=O)[C@H](CCCNC(=N)NC)NC(=O)[C@](C)(CCCCN)NC(=O)[C@H](CO)NC(=O)[C@H](Cc1c[nH]c2ccccc12)NC(=O)[C@@H](NC(=O)[C@H](CO)NC(=O)[C@H](CCCC)NC(=O)CNC(=O)[C@H](CCC(=O)O)NC(=O)C(C)(C)NC(=O)C(C)(C)NC(=O)[C@@H](NC(=O)[C@H](CCCCNC(C)=O)NC(=O)[C@H](C)NC(=O)[C@H](CCCNC(=N)N)NC(=O)[C@@H](NC(=O)[C@H](CCCCN)NC(=O)[C@H](CCC(=O)O)NC(=O)[C@H](CCCNC(=N)N)NC(=O)CNC(=O)[C@H](CCC(=O)O)NC(=O)[C@H](CC(C)C)NC(C)=O)C(C)C)[C@@H](C)CC)[C@@H](C)O)C(N)=O)C(=O)O)C(=O)O)C(=O)O)C(=O)O [compound 141] (Ac-LEGREKVRAK(Ac)I[Aib][Aib]EG[Nle]STWS[αMeK][Arg(Me)][Lys(Me3)]K(Ac)K([AEEA-AEEA-AEEA-AEEA-γGlu-γGlu-γGlu-γGlu-Palmitoyl])-NH2) |
